Experimental data taken from article PMC2574866 (Drug metabolism and disposition: the biological fate of …, 2008).
Read-outs that look alike come from different tables or passages of the source.

Columns and labels:
[1] = target: bovine serum albumin (BSA) / essentially fatty acid-free BSA (BSA-FAF) (Bos taurus, UniProt P02769)
[2] = test system: sandwich-cultured rat hepatocytes; settings: for biliary excretion index (BEI), effect of BSA-FAF / unbound intrinsic biliary clearance (intrinsic Cl'biliary), effect of BSA-FAF: 4% (w/v) BSA-FAF vs no BSA or BSA
[3] = literature value, cited from earlier work
[4] = 4% (w/v) BSA vs no BSA, 10 min incubation
[5] = addition of 1 mM Ca2+ (calcium chloride) to BSA-FAF, n = 1 liver
[6] = six long chain fatty acids added to BSA-FAF, n = 1 liver

Sequence of bovine serum albumin (BSA) / essentially fatty acid-free BSA (BSA-FAF) (P02769 25-607): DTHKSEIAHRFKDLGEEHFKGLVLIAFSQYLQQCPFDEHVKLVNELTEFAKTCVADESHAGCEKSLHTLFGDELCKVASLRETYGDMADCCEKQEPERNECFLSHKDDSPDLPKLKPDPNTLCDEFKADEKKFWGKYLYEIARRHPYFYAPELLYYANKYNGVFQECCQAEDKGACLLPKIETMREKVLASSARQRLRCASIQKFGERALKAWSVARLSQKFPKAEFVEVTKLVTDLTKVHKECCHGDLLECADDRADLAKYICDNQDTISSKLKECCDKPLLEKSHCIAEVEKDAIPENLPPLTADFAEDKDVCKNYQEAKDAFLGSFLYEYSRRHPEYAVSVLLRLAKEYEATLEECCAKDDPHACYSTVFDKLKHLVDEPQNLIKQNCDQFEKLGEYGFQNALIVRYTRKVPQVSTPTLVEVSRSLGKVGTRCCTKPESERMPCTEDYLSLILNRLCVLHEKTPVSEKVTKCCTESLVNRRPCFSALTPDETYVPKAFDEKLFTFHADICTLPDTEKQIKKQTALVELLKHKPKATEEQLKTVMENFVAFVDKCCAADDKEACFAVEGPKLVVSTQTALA

| Structure (SMILES) | fu dependence on compound concentration [1] | fu in the presence of BSA compared to BSA-FAF [1] | biliary excretion index (BEI), effect of BSA [2, 4] | unbound intrinsic biliary clearance (intrinsic Cl'biliary), effect of BSA [2, 4] | biliary excretion index (BEI), effect of BSA-FAF ([2]; 10 min incubation) | unbound intrinsic biliary clearance (intrinsic Cl'biliary), effect of BSA-FAF ([2]; 10 min incubation) | BEI in the presence of BSA-FAF, effect of additional Ca2+ [2, 5] | intrinsic Cl'biliary in the presence of BSA-FAF, effect of additional Ca2+ [2, 5] | unbound fraction (fu) ([3]; ref Lacy et al., 2002) | fu in the presence of BSA-FAF, effect of addition of long chain fatty acids [1] | BEI in the presence of BSA-FAF, effect of addition of long chain fatty acids [2, 6] | intrinsic Cl'biliary in the presence of BSA-FAF, effect of addition of long chain fatty acids [2, 6] | unbound fraction (fu) ([3]; ref Hatanaka, 2000) | binding to albumin ([1]; bovine) | accumulation in sandwich-cultured rat hepatocytes ([2]; in the presence of BSA or BSA-FAF vs no BSA) | unbound fraction (fu) ([3]; ref Forker and Luxon, 1981, Hung et al., 2005) |
| --- | --- | --- | --- | --- | --- | --- | --- | --- | --- | --- | --- | --- | --- | --- | --- | --- |
| C[C@H]1O[C@@H](O[C@H]2[C@@H](O)C[C@H](O[C@H]3[C@@H](O)C[C@H](O[C@H]4CC[C@@]5(C)[C@H](CC[C@@H]6[C@@H]5C[C@@H](O)[C@]5(C)[C@@H](C7=CC(=O)OC7)CC[C@]65O)C4)O[C@@H]3C)O[C@@H]2C)C[C@H](O)[C@@H]1O [digoxin] | concentration-independent | significantly higher | not altered | not altered | significantly decreased | significantly decreased | unable to restore | unable to restore | ~ 0.7 | – | – | – | – | – | – | – |
| CC[C@H](C)C(=O)O[C@H]1C[C@H](O)C=C2C=C[C@H](C)[C@H](CC[C@@H](O)C[C@@H](O)CC(=O)O)[C@H]21 [pravastatin] | concentration-independent | significantly higher | – | not significantly different | significantly decreased | significantly decreased | – | – | – | unable to mitigate this effect | unable to mitigate this effect | unable to mitigate this effect | ~ 0.5 | – | – | – |
| C[C@H](CCC(=O)NCCS(=O)(=O)O)[C@H]1CC[C@H]2[C@@H]3[C@H](O)C[C@@H]4C[C@H](O)CC[C@]4(C)[C@H]3C[C@H](O)[C@]12C [taurocholate] | concentration-independent | significantly higher | – | unaffected | – | – | – | – | – | – | – | – | – | approximately 85% | notably decreased | ~ 0.15 |
